Results on 14 molecules are retold here after PubChem BioAssay (NCI).

Some test systems named below: RPMI-8226 leukemia; U251 CNS; LXFL 529 NSCLC; M14 melanoma; KM20L2 colon; UO-31 renal; BT-549 breast; HS 578T breast; DMS 114 small cell lung; HT29 colon.
Common to all, as to assay: growth of human tumour cells (NCI), 48 h

Values joined by “and” are separate entries in the source; they are usually repeats but may differ in a detail not shown here. Equal values may be shown once.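 Cells were grown in 96-well plates and exposed to each compound for 48 hours at five concentrations; endpoints were interpolated linearly between bracketing concentrations, or set to the highest concentration if not reached. GI50 is the concentration that inhibits growth by half. TGI marks complete inhibition of growth.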

On to `O=C1/C(=C/c2ccccc2)CN(C(=O)CCN2CCOCC2)C/C1=C\c1ccccc1`, for which the TGI is 3.3 µM in the assay on RPMI-8226 leukemia; 3.52 µM with U251 CNS; 6.35 µM in the assay on LXFL 529 NSCLC; 5.4 µM with M14 melanoma; 3.9 µM in the assay on KM20L2 colon; 19.2 µM in the assay on UO-31 renal. Also, the TGI was 4.71 µM in the assay on BT-549 breast, 13.1 µM with HS 578T breast, 7.59 µM in the assay with DMS 114 small cell lung and 3.8 µM in the assay with HT29 colon.
For the molecule `O=C1C=CC(=O)C2=C1[C@@H](O)C1CC=CC3C(=O)O[C@@H]2C31` (stereo partly specified), the TGI in the assay with RPMI-8226 leukemia was 57.7 µM; in the assay with U251 CNS, above 100 µM; in the assay with LXFL 529 NSCLC it was 29.3 µM; in the assay with M14 melanoma, 36 µM; in the assay on KM20L2 colon it was 60.9 µM; in the assay on UO-31 renal it was above 71.5 µM. For the same molecule, the TGI with DMS 114 small cell lung was 51.3 µM; with HT29 colon, above 65.4 µM.
In the case of `CCOC(=O)CC[C@H](NC(=O)c1nc[nH]c1[N+](=O)[O-])C(=O)OCC`, the TGI in the assay with RPMI-8226 leukemia, in the assay with U251 CNS, with LXFL 529 NSCLC, in the assay on M14 melanoma, with KM20L2 colon and with UO-31 renal was above 100 µM throughout. The TGI in the assay on DMS 114 small cell lung is above 100 µM.
On to `O=C1CCCCC1S(=O)(=O)c1ccccc1` (stereo unspecified), for which the TGI in the assay on RPMI-8226 leukemia, in the assay with U251 CNS, with LXFL 529 NSCLC, in the assay on M14 melanoma, with KM20L2 colon and with UO-31 renal was above 100 µM in each case. The TGI in the assay with DMS 114 small cell lung and in the assay on HT29 colon was above 100 µM each time.
Turning to `CCCCCCCCCCCCCCCC(=O)OCC1OC(n2cc(F)c(=O)[nH]c2=O)C(N)C(O)C1O` (stereo unspecified), the TGI was 51.3 µM in the assay with RPMI-8226 leukemia; 32.4 µM in the assay with U251 CNS; 34.3 µM in the assay on LXFL 529 NSCLC; 32.8 µM in the assay with M14 melanoma; 30.9 µM in the assay with KM20L2 colon; 30.8 µM with UO-31 renal. Further, the TGI with DMS 114 small cell lung is 32.8 µM; in the assay on HT29 colon it was 42.1 µM.
As for `Cc1cn(C2CC3C(COCN3O)O2)c(=O)[nH]c1=O` (stereo unspecified), the TGI in the assay with RPMI-8226 leukemia, in the assay with U251 CNS, in the assay with LXFL 529 NSCLC, in the assay on M14 melanoma, with KM20L2 colon and in the assay with UO-31 renal was above 100 µM in each case. Besides, the TGI with DMS 114 small cell lung and in the assay with HT29 colon was above 100 µM each time.
Regarding `Cc1ccccc1C1OC(=O)c2ccc3ccccc3c21` (stereo unspecified), the TGI was determined as 5.43 µM in the assay on RPMI-8226 leukemia; 13.3 µM in the assay on U251 CNS; 15.1 µM with LXFL 529 NSCLC; 10.9 µM in the assay with M14 melanoma; 15.8 µM with KM20L2 colon; 10.9 µM in the assay with UO-31 renal. Further, the TGI in the assay with DMS 114 small cell lung was 13.3 µM; in the assay on HT29 colon, above 31.6 µM.
With `O=[N+]([O-])c1ccc(-n2nnc(C3=NCCN3)c2-c2ccccc2)cc1`, the TGI in the assay on RPMI-8226 leukemia, with U251 CNS, in the assay with LXFL 529 NSCLC, in the assay with M14 melanoma, with KM20L2 colon and with UO-31 renal was above 100 µM in each case. For the same molecule, the TGI with DMS 114 small cell lung and in the assay with HT29 colon was above 100 µM in each case.
As for `Cc1nc(Nc2ccccc2)sc1C(=O)CC(=O)C(=O)Nc1c(C(C)C)cccc1C(C)C`, the TGI in the assay with U251 CNS, in the assay with LXFL 529 NSCLC, with M14 melanoma, in the assay on KM20L2 colon, in the assay on UO-31 renal and with DMS 114 small cell lung was above 100 µM in each case. In the assay on HT29 colon, this molecule had a TGI above 100 µM.
Regarding `CC1=NN(C(=O)c2ccccc2O)C(=O)/C1=C/c1ccc(O)cc1`, the TGI was above 100 µM in the assay on RPMI-8226 leukemia; above 100 µM in the assay on U251 CNS; above 100 µM in the assay with LXFL 529 NSCLC; 22.4 µM with M14 melanoma; above 100 µM in the assay with KM20L2 colon; above 100 µM in the assay on BT-549 breast. The TGI with DMS 114 small cell lung was 16.1 µM; in the assay on HT29 colon, above 100 µM.
For `CC[C@@]1(O)C(=O)OCc2c1cc1n(c2=O)Cc2cc3cc4c(cc3nc2-1)OCO4`, the TGI with U251 CNS is 0.0171 µM and 0.0613 µM; in the assay on LXFL 529 NSCLC it was 0.375 µM; in the assay with KM20L2 colon it was above 100 µM; in the assay on UO-31 renal it was 0.0251 µM and < 0.015 µM; with HS 578T breast, above 100 µM; in the assay on DMS 114 small cell lung, 0.0273 µM and 0.0398 µM. Moreover, the GI50 is 0.0569 µM with KM20L2 colon and above 100 µM in the assay with HS 578T breast.
As to `C=C1CC2OC(=O)C(=C)C2C(O)C2C(=C)CCC12` (stereo unspecified), the TGI in the assay with RPMI-8226 leukemia came out at 14.3 µM; in the assay with U251 CNS it was 30.8 µM; in the assay with LXFL 529 NSCLC it was 16.7 µM; with UO-31 renal, 29.7 µM; in the assay with DMS 114 small cell lung, 16.9 µM; with HT29 colon, 15.1 µM.
With `OC1(C23CC4CC(CC(C4)C2)C3)CSCC1(O)C12CC3CC(CC(C3)C1)C2` (stereo unspecified), the TGI in the assay on RPMI-8226 leukemia, in the assay with LXFL 529 NSCLC, in the assay on M14 melanoma, in the assay with UO-31 renal, with DMS 114 small cell lung and with HT29 colon was above 100 µM each time.
Turning to `CCCCCCC[CH2][Sn]([CH2]CCCCCCC)([O]c1cccc2cccnc12)[O]c1cccc2cccnc12`, the GI50 in the assay with RPMI-8226 leukemia is 0.625 µM; in the assay on U251 CNS, 1.72 µM; in the assay on LXFL 529 NSCLC it was 0.822 µM; with M14 melanoma it was 1.33 µM; with KM20L2 colon, 3.46 µM; with UO-31 renal, 2 µM. Also, the results for the GI50 in the assay with DMS 114 small cell lung and in the assay on HT29 colon were 1.39 µM and 2.04 µM, respectively. The TGI in the assay on RPMI-8226 leukemia was determined as 2.84 µM; in the assay on U251 CNS, 3.25 µM; in the assay with LXFL 529 NSCLC, 2.3 µM; in the assay with M14 melanoma, 3.17 µM; in the assay on KM20L2 colon it was 12.2 µM; with UO-31 renal, 5.42 µM. In addition, the TGI with DMS 114 small cell lung is 3.08 µM; with HT29 colon, 3.94 µM.
